The text below walks through data of US20180279622A1, “1-AMINO-1-CYCLOPROPANECARBOXYLIC ACID FORMULATIONS” (Valent BioSciences LLC, priority 2017, published 2018).

The structures appear in SMILES notation. Where two headings read alike, the source gives them in different places.

Data set [1] in a line: Color change inhibition (Gardner Color Scale). The following applies: for Color (Gardner Scale): 54° C. for two weeks. The class given is physicochemical. As for the experimental part: Specifically, the color changed from clear or a 1 on the Gardner Scale to a yellow color of 4-5 on the Gardener Scale. See ASTM D1544-04(2010), Standard Test Method for Color of Transparent Liquids (Gardner Color Scale), ASTM International, West Conshohocken, Pa., 2010, www.astm.org for explanation of the Gardner scale. To overcome this problem several methods were tested including lowering the pH to 4.0, packaging under nitrogen gas blanket, adding specific salts, chelating agents, antioxidants or preservatives.

The nature of data set [2]: ACC precipitation and crystallization tests. The class given is physicochemical.
Data set [3] in a line: ACC precipitation and crystallization tests. The class given is physicochemical. As for the experimental part: To overcome this problem, salts were added individually to 10% w/w ACC aqueous solutions. These solutions were stored at room temperature and analyzed for precipitate formation.
The source holds these as a separate data set.

The test system of another data set is cotton cotyledons. As to the kind of experiment: Cotton cotyledon bioefficacy assay (headspace ethylene evolution). The class given is in vivo. As for the experimental part:
The solutions were amended with 0.05% (v/v) of a non-ionic surfactant and spray applied to the adaxial surface of 10-day old cotton cotyledons using a track sprayer. In addition to ACC-containing solutions, appropriate controls were tested. Two days (48 hours) after spray application, the cotyledons from each plant were removed, weighed and incubated in sealed glass vials for 4 to 7 hours. Headspace ethylene evolution by the cotyledons was measured by gas chromatography using standard methods. The assay from Example 5, above, was repeated with a formulation containing 0.2% w/w EDTA.

In another data set the test system is Gala apple trees. As to the kind of experiment: Apple thinning. The data set is classed as in vivo. The following applies: foliar spray at 18 to 20 mm mean fruit diameter. As for the experimental part:
The formula from Example 8, above, was diluted to prepare 200 and 400 ppm ACC solutions. These solutions were applied as a foliar spray to Gala apple trees grown at three separate locations when the mean fruit diameter was from 18 to 20 millimeters. […] Thinning activity is expressed as the number of fruit set per 100 flower clusters after the completion of natural fruit drop.

The mark [4] stands for this setting: salt added to 10% w/w ACC aqueous solution, 5° C. overnight.
Where [5] appears, read: salt added to 10% w/w ACC aqueous solution, stored at room temperature.
The mark [6] stands for this setting: additive 0.2 % w/w in 10% ACC, 10% calcium chloride, Kathon CG/ICP formulation.

On to `Cl` [2N hydrochloric acid, hydrochloric acid], for which the “Color (Gardner Scale)” value in data set [1] (additive 0.6-0.9 % w/w) is 3-4.

For `CC(O)C(=O)[O-].CC(O)C(=O)[O-].O.O.O.O.O.[Ca+2]` (stereo not drawn) [(CH3CH(OH)COO)2Ca•5H2O], the “Precipitation (5° C.)” value in data set [2] (setting [4]) is on record as “YES”. Besides, the “Precipitation (room temperature)” value in data set [3] (setting [5]) is recorded as “YES”.

For `NC1(C(=O)O)CC1` [ACC, 1-amino-1-cyclopropanecarboxylic acid], the Ethylene in the data set on cotton cotyledons (ACC 500 ppm, molar ratio 1:0, 48 hours after spray) is reported as 39.80 nL/gFW/hr; with cotton cotyledons (Example 6, ACC 500 ppm), 27.6 nL/g FW/hr. The “Thinning Activity” value with Gala apple trees (Geneva, NY, 200 ppm ACC) was 47 fruit set per 100 flower clusters; in the data set on Gala apple trees (Geneva, NY, 400 ppm ACC), 37 fruit set per 100 flower clusters; in the data set on Gala apple trees (Monitor, WA, 200 ppm ACC), 32 fruit set per 100 flower clusters; in the data set on Gala apple trees (Monitor, WA, 400 ppm ACC) it was 10 fruit set per 100 flower clusters; in the data set with Gala apple trees (Parkdale, OR, 200 ppm ACC) it was 267 fruit set per 100 flower clusters; in the data set with Gala apple trees (Parkdale, OR, 400 ppm ACC), 194 fruit set per 100 flower clusters. Moreover, the Precipitation result in data set [3] (10% w/w ACC free acid in water, no salt, room temperature and/or 5° C.) is on record as “precipitate”.

As to `O=[N+]([O-])[O-].[Ag+]` [AgNO3], in data set [2] (setting [4]), the “Precipitation (5° C.)” value is given as “YES”. In addition, in data set [3] (setting [5]), the “Precipitation (room temperature)” value is given as “YES”.

`O=S(=O)([O-])[O-].O=S(=O)([O-])[O-].O=S(=O)([O-])[O-].[Al+3].[Al+3]` [Al2(SO4)3]: the “Precipitation (5° C.)” value in data set [2] (setting [4]) is “YES”. In addition, the “Precipitation (room temperature)” value in data set [3] (setting [5]) is listed as “YES”.

`O=C1O[C@H]([C@@H](O)CO)C(O)=C1O` [Ascorbic acid]: the “Color (Gardner Scale)” value in data set [1] (setting [6]) is greater than 18.

Turning to `[Ba+2].[Cl-].[Cl-]` [BaCl2], the “Precipitation (5° C.)” value in data set [2] (setting [4]) is reported as “YES”.

In the case of `O=[N+]([O-])[O-].O=[N+]([O-])[O-].[Ca+2]` [Ca(NO3)2], in data set [2] (setting [4]), the “Precipitation (5° C.)” value was “YES”.

Consider `[Ca+2].[Cl-].[Cl-]` [CaCl2, calcium chloride], for which, in the data set on cotton cotyledons (CaCl2 550 ppm, molar ratio ACC:CaCl2 0:1, 48 hours after spray), the Ethylene worked out at 1.49 nL/gFW/hr.

`O=S(=O)([O-])[O-].[Ca+2]` [CaSO4]: in data set [2] (setting [4]), the “Precipitation (5° C.)” value is on record as “YES”. Moreover, the “Precipitation (room temperature)” value in data set [3] (setting [5]) was “YES”.

On to `O=C(O)CC(O)(CC(=O)O)C(=O)O` [Citric acid], for which the “Color (Gardner Scale)” value in data set [1] (setting [6]) is recorded as 4-5.

Turning to `O=C(O)CN(CCN(CC(=O)O)CC(=O)O)CC(=O)O` [EDTA, ethylenediaminetetraacetic acid], the Gardner scale score in data set [1] (EDTA at 0.1% or 0.2% w/w, 2 weeks at 54° C.) is given as no more than 2; in data set [1] (EDTA at 0.1% or 0.2% w/w, 2 weeks plus 6 additional weeks at 54° C.) it was 1-2. Besides, in data set [1] (EDTA at 0.1% or 0.2% w/w, pH 4.0), the “Color maintenance versus pH” value was “best results”. In addition, in data set [1] (EDTA at 0.1% or 0.2% w/w, pH 5.2, 54° C.), the “Time clear color maintained” value was “at least 4 weeks”. Moreover, the “Color (Gardner Scale)” value in data set [1] (additive 0.1 % w/w) and in data set [1] (additive 0.5 % w/w) was 1-2 in each case.

Take `O=C(O)/C=C/C(=O)O` [Fumaric acid]: the “Color (Gardner Scale)” value in data set [1] (setting [6]) is recorded as 4-5.

`O=C([O-])CC(O)(CC(=O)[O-])C(=O)[O-].[Fe+3]` [Iron(III) citrate hydrate]: the “Precipitation (5° C.)” value in data set [2] (setting [4]) is “YES”. Further, the “Precipitation (room temperature)” value in data set [3] (setting [5]) is reported as “YES”.

Consider `[Cl-].[K+]` [KCl], for which, in data set [2] (setting [4]), the “Precipitation (5° C.)” value is reported as “YES”. Besides, in data set [3] (setting [5]), the “Precipitation (room temperature)” value was “YES”.

On to `O=[N+]([O-])[O-].[K+]` [KNO3], for which the “Precipitation (5° C.)” value in data set [2] (setting [4]) was “YES”. Besides, the “Precipitation (room temperature)” value in data set [3] (setting [5]) is reported as “YES”.

In the case of `O=[N+]([O-])[O-].O=[N+]([O-])[O-].[Mg+2]` [Mg(NO3)2], the “Precipitation (5° C.)” value in data set [2] (setting [4]) was “YES”.

In the case of `[Cl-].[Cl-].[Mg+2]` [MgCl2], the “Precipitation (5° C.)” value in data set [2] (setting [4]) is “YES”.

Regarding `Cl.N` [NH4Cl], the “Precipitation (5° C.)” value in data set [2] (setting [4]) is recorded as “YES”. The “Precipitation (room temperature)” value in data set [3] (setting [5]) is on record as “YES”.

Consider `N.O=[N+]([O-])O` [NH4NO3], for which the “Precipitation (5° C.)” value in data set [2] is recorded as “YES”. For the same compound, the “Precipitation (room temperature)” value in data set [3] is recorded as “YES”.

For the compound `CC(=O)[O-].[Na+]` [Sodium acetate], the “Color (Gardner Scale)” value in data set [1] (setting [6]) was 4-5.

`O=C([O-])CC(O)(CC(=O)[O-])C(=O)[O-].[Na+].[Na+].[Na+]` [Sodium citrate]: the “Color (Gardner Scale)” value in data set [1] (setting [6]) was 4-5.

Turning to `NC(N)=O` [Urea], the “Color (Gardner Scale)” value in data set [1] (setting [6]) was 5-6.
